Patent US20250034110A1, “LPAR1 ANTAGONISTS AND USES THEREOF” (Pipeline Therapeutics, Inc., priority 2021, published 2025)
Like-named read-outs stand apart in the source and are kept apart here.

Biological target: human LPAR1 (Homo sapiens, UniProt Q92633)
Assay: In vitro functional assay of lysophosphatidic acid receptor 1 activity (calcium flux)
Type: cell-based
[1] = B103 cells stably expressing human LPAR1, calcium flux (Fluo-4 NW) after lysophosphatidic acid (18:1) at EC80, 100 pM to 10 μM, read-out: LPAR1 IC50

Sequence of human LPAR1 (Q92633 whole entry): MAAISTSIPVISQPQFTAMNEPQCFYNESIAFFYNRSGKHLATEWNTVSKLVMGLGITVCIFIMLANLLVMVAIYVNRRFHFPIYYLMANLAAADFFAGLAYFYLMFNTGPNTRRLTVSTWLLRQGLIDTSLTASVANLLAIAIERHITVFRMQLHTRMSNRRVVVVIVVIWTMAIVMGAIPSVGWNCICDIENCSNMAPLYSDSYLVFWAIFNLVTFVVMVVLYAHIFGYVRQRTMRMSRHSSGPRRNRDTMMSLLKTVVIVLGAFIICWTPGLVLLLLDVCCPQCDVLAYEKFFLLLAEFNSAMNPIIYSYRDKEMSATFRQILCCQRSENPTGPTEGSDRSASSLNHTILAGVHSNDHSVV

Structure (SMILES): COCc1ccc(NC(=O)N(c2ccccc2C(C)C)[C@H]2CC[C@H](C(=O)O)CC2)c(OCC(F)F)n1 [Example 318, (1r,4r)-4-(3-(2-(2,2-difluoroethoxy)-6-(methoxymethyl)pyridin-3-yl)-1-(2-isopropylphenyl)ureido)cyclohexane-1-carboxylic acid]
- IC50 [1]: 100 to 1000 nM

Structure (SMILES): COc1ccc(NC(=O)N(c2ccccc2C(C)C)[C@H]2CC[C@@](O)(C(F)(F)C(=O)O)CC2)c(OC(F)F)n1 [Example 321, 2-((1r,4r)-4-(3-(2-(difluoromethoxy)-6-methoxypyridin-3-yl)-1-(2-isopropylphenyl)ureido)-1-hydroxycyclohexyl)-2,2-difluoroacetic acid]
- IC50 [1]: < 10 nM

Structure (SMILES): COc1ccc(NC(=O)N(c2ccccc2C(C)C)[C@@H]2CCN(C(C)=O)C[C@H]2F)c(OC(F)F)n1 (racemic) [Example 46, rac-1-((3R,4R)-1-acetyl-3-fluoropiperidin-4-yl)-3-(2-(difluoromethoxy)-6-methoxypyridin-3-yl)-1-(2-isopropylphenyl)urea]
- IC50 (LPAR1 IC50): 10 to 100 nM

Structure (SMILES): Cc1ccc(NC(=O)N(c2ccccc2C(C)C)[C@H]2CC[C@@H](CO)CC2)c(OC(F)F)n1 [Example 242]
- IC50 [1]: 100 to 1000 nM

Structure (SMILES): COc1ccc(NC(=O)N(c2ccccc2C(C)C)[C@H]2CC[C@H](S(C)(=O)=O)CC2)c(OC(F)F)n1 [Example 258, 3-(2-(difluoromethoxy)-6-methoxypyridin-3-yl)-1-(2-isopropylphenyl)-1-((1r,4r)-4-(methylsulfonyl)cyclohexyl)urea]
- IC50 [1]: 100 to 1000 nM

Structure (SMILES): CC(=O)N1CCC(N(C(=O)Nc2ncc(Br)cc2OC(F)F)c2ccccc2C(C)C)CC1 [Example 129, 1-(1-acetylpiperidin-4-yl)-3-(5-bromo-3-(difluoromethoxy)pyridin-2-yl)-1-(2-isopropylphenyl)urea]
- IC50 (LPAR1 IC50): 10 to 100 nM

Structure (SMILES): COc1ccc(NC(=O)N(c2ccccc2C(C)C)[C@H]2C[C@@](O)(C(F)(F)C(=O)O)C2)c(OC(F)F)n1 [Example 323]
- IC50 [1]: < 10 nM

Structure (SMILES): [2H]C([2H])([2H])Oc1cc(C(F)F)ncc1NC(=O)N(c1ccccc1C(C)C)[C@H]1CC[C@H](C(=O)O)CC1 [Example 296, (1r,4r)-4-(3-(6-(difluoromethyl)-4-(methoxy-d3)pyridin-3-yl)-1-(2-isopropylphenyl)ureido)cyclohexane-1-carboxylic acid]
- IC50 [1]: 100 to 1000 nM

Structure (SMILES): Cc1ccc(NC(=O)N(c2ccccc2C(C)C)C2CC3(C2)CN(C(=O)NC2CC2)C3)c(OC(F)F)c1 [Example 126]
- IC50 [1]: 10 to 100 nM

Structure (SMILES): CCOc1nc(C)ccc1NC(=O)N(c1ccccc1C(C)C)C1CCN(C(C)=O)CC1 [Example 105]
- IC50 (LPAR1 IC50): 100 to 1000 nM

Structure (SMILES): Cc1ccc(NC(=O)N(c2ccccc2C(C)C)C2CN(S(C)(=O)=O)C2)c(OC(F)F)n1 [Example 74, 3-(2-(difluoromethoxy)-6-methylpyridin-3-yl)-1-(2-isopropylphenyl)-1-(1-(methylsulfonyl)azetidin-3-yl)urea]
- IC50 [1]: 100 to 1000 nM

Structure (SMILES): COc1ccc(NC(=O)N(c2ccccc2C(C)C)[C@H]2C[C@]3(C[C@H]3C(=O)O)C2)c(OC(F)F)n1 [Example 150]
- IC50 [1]: < 10 nM

Structure (SMILES): CC(=O)N1CCC(N(C(=O)Nc2ccc(C)cn2)c2ccccc2C(C)C)CC1 [Example 143, 1-(1-acetylpiperidin-4-yl)-1-(2-isopropylphenyl)-3-(5-methylpyridin-2-yl)urea]
- IC50 (LPAR1 IC50): > 1000 nM

Structure (SMILES): Cc1ccc(NC(=O)N(c2ccccc2C(C)C)[C@H]2CCN(C(=O)OC(C)(C)C)C2)c(OC(F)F)n1 [Example 8, tert-butyl (S)-3-(3-(2-(difluoromethoxy)-6-methylpyridin-3-yl)-1-(2-isopropylphenyl)ureido)pyrrolidine-1-carboxylate]
- IC50 [1]: 100 to 1000 nM

Structure (SMILES): COc1ccc(NC(=O)N(c2ccccc2C(C)C)C2CCN(C(C)=O)CC2)c(OC(F)F)n1 [Example 86, 1-(1-acetylpiperidin-4-yl)-3-(2-(difluoromethoxy)-6-methoxypyridin-3-yl)-1-(2-isopropylphenyl)urea]
- IC50 (LPAR1 IC50): 10 to 100 nM

Structure (SMILES): Cc1ccc(NC(=O)N(C[C@@H]2CCN2C(=O)OC(C)(C)C)c2ccccc2C(C)C)c(OC(F)F)n1 [Example 12, tert-butyl (S)-2-((3-(2-(difluoromethoxy)-6-methylpyridin-3-yl)-1-(2-isopropylphenyl)ureido)methyl)azetidine-1-carboxylate]
- IC50 [1]: > 1000 nM

Structure (SMILES): COC(=O)C1CC(N(C(=O)Nc2ncc(Br)cc2OC(F)F)c2ccccc2C(C)C)C1 (stereo not drawn) [Example 177]
- IC50 [1]: 10 to 100 nM

Structure (SMILES): Cc1ccc(NC(=O)N(c2ccccc2C(C)C)C2CCS(=O)(=O)CC2)c(OC(F)F)n1 [Example 20, 3-(2-(difluoromethoxy)-6-methylpyridin-3-yl)-1-(1,1-dioxidotetrahydro-2H-thiopyran-4-yl)-1-(2-isopropylphenyl)urea]
- IC50 [1]: 10 to 100 nM

Structure (SMILES): COc1ccc(NC(=O)N(c2ccccc2C(C)C)[C@H]2CCC[C@H](C(=O)O)C2)c(OC(F)F)n1 [Example 146]
- IC50 [1]: 10 to 100 nM

Structure (SMILES): COc1cc(C)ccc1NC(=O)N(c1ccccc1C(C)C)[C@H]1CC[C@H](C(=O)O)CC1 [Example 327, (1r,4r)-4-(1-(2-isopropylphenyl)-3-(2-methoxy-4-methylphenyl)ureido)cyclohexane-1-carboxylic acid]
- IC50 [1]: < 10 nM

Structure (SMILES): COc1ccc(NC(=O)N(c2ccccc2C(C)C)[C@H]2CC[C@H](C(=O)O)CC2)c(O)n1 [Example 254]
- IC50 [1]: > 1000 nM

Structure (SMILES): CC(=O)N1CC2(CC(N(C(=O)Nc3ncc(Cl)cc3OC(F)F)c3ccccc3C(C)C)C2)C1 [Example 124]
- IC50 [1]: 100 to 1000 nM

Structure (SMILES): CC(=O)N1CCC(N(C(=O)Nc2cccnc2OC(F)F)c2ccccc2C(C)C)CC1 [Example 91]
- IC50 (LPAR1 IC50): 10 to 100 nM

Structure (SMILES): CC(=O)N1CCC2(CC1)CC(N(C(=O)Nc1ccc(C)nc1OC(F)F)c1ccccc1C(C)C)C2 [Example 251, 1-(7-acetyl-7-azaspiro[3.5]nonan-2-yl)-3-(2-(difluoromethoxy)-6-methylpyridin-3-yl)-1-(2-isopropylphenyl)urea]
- IC50 [1]: > 1000 nM

Structure (SMILES): COc1ccc(NC(=O)N(c2ccccc2C(C)C)[C@H]2CC[C@@H](OC)CC2)c(OC(F)F)n1 [Example 39, 3-(2-(difluoromethoxy)-6-methoxypyridin-3-yl)-1-(2-isopropylphenyl)-1-((1s,4s)-4-methoxycyclohexyl)urea]
- IC50 [1]: 100 to 1000 nM

Structure (SMILES): Cc1ccc(NC(=O)N(c2ccccc2C(C)C)C2CCC(NS(C)(=O)=O)CC2)c(OC(F)F)n1 (stereo not drawn) [Example 269, N-(4-(3-(2-(difluoromethoxy)-6-methylpyridin-3-yl)-1-(2-isopropylphenyl)ureido)cyclohexyl)methanesulfonamide]
- IC50 [1]: 10 to 100 nM

Structure (SMILES): Cc1ccc(NC(=O)N(c2ccccc2C(C)C)[C@H]2CC[C@H](CC(=O)O)CC2)c(OC(F)F)n1 [Example 165, 2-((1r,4r)-4-(3-(2-(difluoromethoxy)-6-methylpyridin-3-yl)-1-(2-isopropylphenyl)ureido)cyclohexyl)acetic acid]
- IC50 [1]: < 10 nM

Structure (SMILES): Cc1ccc(NC(=O)N(c2ccccc2C(C)C)[C@H]2C[C@H](CC#N)C2)c(OC(F)F)n1 [Example 27, 1-((1r,3r)-3-(cyanomethyl)cyclobutyl)-3-(2-(difluoromethoxy)-6-methylpyridin-3-yl)-1-(2-isopropylphenyl)urea]
- IC50 [1]: 100 to 1000 nM

Structure (SMILES): COc1cc(Cl)c(F)cc1NC(=O)N(c1ccccc1C(C)C)[C@H]1CC[C@H](C(=O)O)CC1 [Example 333, (1r,4r)-4-(3-(4-chloro-5-fluoro-2-methoxyphenyl)-1-(2-isopropylphenyl)ureido)cyclohexane-1-carboxylic acid]
- IC50 [1]: < 10 nM

Structure (SMILES): Cc1ccc(NC(=O)N(c2ccccc2C(C)C)C2CC3(C2)CN(C(=O)Cn2nccn2)C3)c(OC(F)F)n1 [Example 84, 1-(2-(2-(2H-1,2,3-triazol-2-yl)acetyl)-2-azaspiro[3.3]heptan-6-yl)-3-(2-(difluoromethoxy)-6-methylpyridin-3-yl)-1-(2-isopropylphenyl)urea]
- IC50 [1]: 100 to 1000 nM

Structure (SMILES): Cc1ccc(NC(=O)N(c2ccccc2C(C)C)[C@H]2CC[C@](C)(C(=O)O)CC2)c(OC(F)F)n1 [Example 309]
- IC50 [1]: < 10 nM

Structure (SMILES): CC(C)c1ccccc1N(C(=O)Nc1ccc(C2CC2)nc1OC(F)F)[C@H]1CC[C@H](C(=O)O)CC1 [Example 232]
- IC50 [1]: 10 to 100 nM

Structure (SMILES): COc1ccc(NC(=O)N(c2ccccc2C(C)C)[C@@H]2C[C@H]3CC[C@@H](C2)N3C(C)=O)c(OC(F)F)n1 [Example 55, 1-((1R,3r,5S)-8-acetyl-8-azabicyclo[3.2.1]octan-3-yl)-3-(2-(difluoromethoxy)-6-methoxypyridin-3-yl)-1-(2-isopropylphenyl)urea]
- IC50 (LPAR1 IC50): 100 to 1000 nM

Structure (SMILES): Cc1ccc(NC(=O)N(c2ccccc2C(C)C)[C@H]2CC[C@H](C(=O)O)CC2)c(OC(F)F)n1 [Example 155, trans-4-(3-(2-(difluoromethoxy)-6-methylpyridin-3-yl)-1-(2-isopropylphenyl)ureido)cyclohexane-1-carboxylic acid]
- IC50 [1]: 10 to 100 nM

Structure (SMILES): Cc1ccc(NC(=O)N(c2ccccc2C(C)C)[C@H]2C[C@@H](CO)C2)c(OC(F)F)n1 [Example 193, 3-(2-(difluoromethoxy)-6-methylpyridin-3-yl)-l-((1 s,3s)-3-(hydroxymethyl)cyclobutyl)-1-(2-isopropylphenyl)urea]
- IC50 [1]: 100 to 1000 nM

Structure (SMILES): CC(C)Oc1ccc(NC(=O)N(c2ccccc2C(C)C)[C@H]2CC[C@H](C(=O)O)CC2)c(OCC(F)F)n1 [Example 259, (1r,4r)-4-(3-(2-(2,2-difluoroethoxy)-6-isopropoxypyridin-3-yl)-1-(2-isopropylphenyl)ureido)cyclohexane-1-carboxylic acid]
- IC50 [1]: 10 to 100 nM

Structure (SMILES): Cc1ccc(NC(=O)N(CC23CCC(C(=O)O)(CC2)CC3)c2ccccc2C(C)C)c(OC(F)F)n1 [Example 167]
- IC50 [1]: 10 to 100 nM

Structure (SMILES): CC(=O)N1CC2(CC(N(C(=O)Nc3ccc(C)cc3OC(F)F)c3ccccc3C(C)C)C2)C1 [Example 125, 1-(2-acetyl-2-azaspiro[3.3]heptan-6-yl)-3-(2-(difluoromethoxy)-4-methylphenyl)-1-(2-isopropylphenyl)urea]
- IC50 [1]: 10 to 100 nM

Structure (SMILES): Cc1ccc(NC(=O)N(c2ccccc2C(C)C)C2CCC(NC(=O)c3nccs3)CC2)c(OC(F)F)n1 (stereo not drawn) [Example 268, N-(4-(3-(2-(difluoromethoxy)-6-methylpyridin-3-yl)-1-(2-isopropylphenyl)ureido)cyclohexyl)thiazole-2-carboxamide]
- IC50 [1]: 100 to 1000 nM
